Results as given in US8394825B2, “Compound” (Sterix Limited, priority 2007, dated 2013).

First: CCOC1CN(Cc2cc(OC)c(OC)c(OC)c2)Cc2cc(OC)c(O)cc21 (stereo not shown) [F37, 4-Ethoxy-7-methoxy-2-(3,4,5-trimethoxybenzyl)-1,2,3,4-tetrahydroisoquinolin-6-ol]
Second: COc1cc2c(cc1O)C(OC)CN(Cc1cc(OC)c(OC)c(OC)c1)C2 (stereo not shown) [F33, 4,7-Dimethoxy-2-(3,4,5-trimethoxybenzyl)-1,2,3,4-tetrahydro-isoquinolin-6-ol]
The melting point of the first is higher: 94 to 96 °C for the first, 51 to 54 °C for the second.

Compared with `COc1cc2c(cc1OCc1ccccc1)CCN(Cc1ccc(C#N)cc1)C2` [29A, 6-Benzyloxy-2-(4-cyanobenzyl)-7-methoxy-1,2,3,4-tetrahydroisoquinoline], `COc1cc2c(cc1OCc1ccccc1)CCN(Cc1cccc([N+](=O)[O-])c1)C2` [compound 10, 6-Benzyloxy-7-methoxy-2-(3-nitrobenzyl)-1,2,3,4-tetrahydroisoquinoline] is lower in melting point: 161 to 162 °C for the first, 109 to 110 °C for the second.

First: COc1ccc(C(=O)CN2CCc3cc(OCc4ccccc4)c(OC)cc3C2)cc1OC [compound 15, 6-Benzyloxy-2-(2-(3,4-dimethoxyphenyl)-2-oxoethyl)-7-methoxy-1,2,3,4-tetrahydroisoquinoline]
Second: COc1ccc(CN2CCc3cc(OCc4ccccc4)c(OC)cc3C2)cc1OC [compound 18, 6-Benzyloxy-7-methoxy-2-(3,4-dimethoxybenzyl)-1,2,3,4-tetrahydroisoquinoline]
The melting point of the first is higher: 126 to 127 °C for the first, 98 to 99 °C for the second.

First: COc1cc2c(cc1O)CC(C)(C)N(Cc1cc(OC)c(OC)c(OC)c1)C2 [compound 229, 7-Methoxy-3,3-dimethyl-2-(3,4,5-trimethoxy-benzyl)-1,2,3,4-tetrahydro-isoquinolin-6-ol]
Second: COc1cc2c(cc1O)CC(C)(C)N(C(=O)c1cc(OC)c(OC)c(OC)c1)C2C (stereo not shown) [compound 246, (3,4-Dihydro-6-hydroxy-7-methoxy-1,3,3-trimethylisoquinolin-2(1H)-yl)(3,4,5-trimethoxyphenyl)methanone]
The melting point of the first is lower: 143 to 147 °C for the first, 198 to 200 °C for the second.

Compared with `COc1cc(OC)c(OC)cc1CN1CCc2cc(O)ccc2C1` [B26, 2-(2,4,5-Trimethoxybenzyl)-1,2,3,4-tetrahydroisoquinolin-6-ol], `COc1cc(O)c(CN2CCc3cc(O)ccc3C2)c(OC)c1` [B28, 2-(2-Hydroxy-4,6-dimethoxybenzyl)-1,2,3,4-tetrahydroisoquinolin-6-ol] is lower in melting point: 188 to 191 °C for the first, 109 to 112 °C for the second.

Compared with `COc1cc2c(cc1O)CCN(Cc1cccc(C(C)=O)c1)C2` [compound 62, 6-Hydroxy-7-methoxy-2-(3-acetylbenzyl)-1,2,3,4-tetrahydroisoquinoline], `COC(=O)c1cccc(CN2CCc3cc(O)c(OC)cc3C2)c1` [70A, 2-(3-(Methoxycarbonyl)benzyl)-6-hydroxy-7-methoxy-1,2,3,4-tetrahydroisoquinoline] is higher in melting point: 132 to 134 °C for the first, 156 to 158 °C for the second.

First: COc1cc2c(cc1OCc1ccccc1)CCN(Cc1ccccn1)C2 [compound 12, 6-Benzyloxy-7-methoxy-2-(pyridin-2-ylmethyl)-1,2,3,4-tetrahydroisoquinoline]
Second: COc1ccccc1CN1CCCc2cc(OCc3ccccc3)c(OC)cc2C1 [compound 302, 7-Benzyloxy-8-methoxy-2-(2-methoxybenzyl)-2,3,4,5-tetrahydro-1H-benzo[c]azepine]
The melting point of the first is lower: 73 to 74 °C for the first, 105 to 106 °C for the second.

First: CCOC1CN(Cc2ccc(OC)cc2)Cc2cc(OC)c(OCc3ccccc3)cc21 (stereo not shown) [F25, 6-Benzyloxy-4-ethoxy-7-methoxy-2-(4-methoxybenzyl)-1,2,3,4-tetrahydroisoquinoline]
Second: COc1cccc(CN2Cc3cc(OC)c(OCc4ccccc4)cc3C(O)C2)c1 (stereo not shown) [F17, 6-Benzyloxy-7-methoxy-2-(3-methoxybenzyl)-1,2,3,4-tetrahydroisoquinolin-4-ol]
The melting point of the first is lower: 84 to 85 °C for the first, 115 to 116 °C for the second.

First: COc1ccc(CN2C(=O)CCc3cc(O)c(OC)cc32)cc1 [compound 292, 6-Hydroxy-7-methoxy-1-(4-methoxybenzyl)-3,4-dihydro-1H-quinolin-2-one]
Second: COc1ccc(CN2Cc3cc(OC)c(O)cc3C(OC)C2)cc1 (stereo not shown) [F32, 4,7-Dimethoxy-2-(4-methoxybenzyl)-1,2,3,4-tetrahydro-isoquinolin-6-ol]
The melting point of the first is higher: 168 to 169 °C for the first, 84 to 85 °C for the second.

First: COc1cc2c(cc1O)CCN(Cc1ccccn1)C2 [compound 48, 6-Hydroxy-7-methoxy-2-(pyridin-2-ylmethyl)-1,2,3,4-tetrahydroisoquinoline]
Second: COc1cc2c(cc1O)CCN(CC(=O)c1ccc(OC)c(OC)c1)C2 [compound 53, 2-(2-(3,4-Dimethoxyphenyl)-2-oxoethyl)-6-hydroxy-7-methoxy-1,2,3,4-tetrahydroisoquinoline]
The melting point of the first is lower: 137 to 138 °C for the first, 149 to 150 °C for the second.

First: COc1cc2c(cc1OCc1ccccc1)CCN(Cc1cc(F)cc(F)c1)C2 [F5, 6-Benzyloxy-2-(3,5-difluorobenzyl)-7-methoxy-1,2,3,4-tetrahydroisoquinoline]
Second: COc1cc(OC)c(CN2CCc3cc(OCc4ccccc4)c(OC)cc3C2)c(OC)c1 [F2, 6-Benzyloxy-7-methoxy-2-(2,4,6-trimethoxybenzyl)-1,2,3,4-tetrahydroisoquinoline]
The melting point of the first is lower: 116 to 117 °C for the first, 129 to 131 °C for the second.

First: CCOC1CN(Cc2cccc(OC)c2)Cc2cc(OC)c(O)cc21 (stereo not shown) [F35, 4-Ethoxy-7-methoxy-2-(3-methoxy-benzyl)-1,2,3,4-tetrahydroisoquinolin-6-ol]
Second: COc1ccccc1CN1Cc2cc(OC)c(OCc3ccccc3)cc2C(OC)C1 (stereo not shown) [F19, 6-Benzyloxy-4,7-dimethoxy-2-(2-methoxybenzyl)-1,2,3,4-tetrahydroisoquinoline]
The melting point of the first is higher: 134 to 135 °C for the first, 101 to 102 °C for the second.

Compared with `COc1cc2c(cc1OCc1ccccc1)CCCC(=O)N2Cc1cc(OC)c(OC)c(OC)c1` [compound 318, 7-benzyloxy-8-methoxy-1-(3,4,5-trimethoxybenzyl)-4,5-dihydro-1H-benzo[b]azepin-2(3H)-one], `COc1cc(OC)cc(C(=O)N2CCc3cc(OCc4ccccc4)ccc3C2=O)c1` [compound 132, 6-Benzyloxy-2-(3,5-dimethoxybenzoyl)-3,4-dihydro-2H-isoquinoline-1-one] is higher in melting point: 129 to 130 °C for the first, 158 to 159 °C for the second.

First: COc1ccc(CN2CCc3cc(O)ccc3C2)cc1 [B17, 2-(4-methoxybenzyl)-1,2,3,4-tetrahydroisoquinolin-6-ol]
Second: Oc1ccc2c(c1)CCN(Cc1ccc3c(c1)OCO3)C2 [B24, 2-(Benzo[d][1,3]dioxol-5-ylmethyl)-1,2,3,4-tetrahydroisoquinolin-6-ol]
The melting point of the first is lower: 158 to 160 °C for the first, 169 to 172 °C for the second.

First: CCOc1ccc(CN2CCc3cc(O)ccc3C2)cc1OCC [B22, 2-(3,4-Diethoxybenzyl)-1,2,3,4-tetrahydroisoquinolin-6-ol]
Second: COc1ccc(C(=O)N2CCc3cc(O)ccc3C2)cc1OC [B10, 2-(3,4-Dimethoxybenzoyl)-1,2,3,4-tetrahydroisoquinolin-6-ol]
The melting point of the first is higher: 150 to 154 °C for the first, 58 to 77 °C for the second.

Compound `COc1cc(OC)cc(C(=O)N2Cc3cc(OC)c(O)cc3CC2(C)C)c1` [compound 235, (3,4-Dihydro-6-hydroxy-7-methoxy-3,3-dimethylisoquinolin-2(1H)-yl)(3,5-dimethoxyphenyl)methanone] has a melting point of 163 to 166 °C.
